Data taken from US20030092683A1, “Use of tetracyclines as neuro-protective agents and for the treatment of parkinson's disease and related disorders” (priority 2001, published 2003).

System: TH-positive (dopaminergic) neurons in the SNpc
Assay: MPTP-induced neuronal death in vivo, TH-positive neurons by immunohistochemistry
Parameters: species or system C57BL/6 mice
Conditions: for viable TH-positive neurons in the SNpc: MPTP 20 mg/kg x4 on day 3, analysed 7 days after last MPTP, MPTP without minocycline 37% of control
Protocol: On day 3 mice were injected with MPTP (20 mg/kg×4). Seven days following the last injection of MPTP, the brains were analyzed by immun histochemistry to detect and quantify tyrosin hydroxylase (TH)-positive neurons.

## CN(C)c1ccc(O)c2c1C[C@H]1C[C@H]3[C@H](N(C)C)C(O)=C(C(N)=O)C(=O)[C@@]3(O)C(O)=C1C2=O [minocycline]
Minocycline 90 mg/kg p.o. daily for nine days
  viable TH-positive neurons in the SNpc: 56 % of control
Minocycline 120 mg/kg p.o. beginning 4 h after the last MPTP injection, MPTP without minocycline 36% of control, p<0.05
  viable TH-positive neurons in the SNpc, treatment after MPTP: 66 % of control
Minocycline 120 mg/kg p.o. daily for nine days
  viable TH-positive neurons in the SNpc: 77 % of control
